# According to patent US5700640A, “Inducers of gamma globin gene expression and screening assays therefor” (priority 1994, dated 1997):
# Tests used:
# [1] = test system: GATA-1 mRNA; assay: Northern hybridization of GATA-1 mRNA in treated K562 cells; format: cell-based, human
# Description: Total RNA was prepared by the method of McDonald as described in Sambrook et al., (1989) Molecular Cloning: A Laboratory Manual, 2nd Edition, Cold Spring Harbor Laboratory Press. 10 μg total cellular RNA was electrophoresed through agarose gels containing 3.3% formaldehyde. The electrophoresed RNA was then transferred to nitrocellulose filters by standard methods. Each sample was hybridized to specific probes for gamma globin mRNA, mRNA encoding the erythroid specific transcription factor GATA-1 and 28S ribosomal RNA (which was used for standardization). The gamma globin and GATA-1 probes were cDNA probes, which were labeled with ^32 p by random priming reactions (Promega Biotech Inc.). The 28S ribosomal RNA probe was an oligonucleotide having the sequence 5' […] 3' (SEQ ID NO: 3), which was labeled by 5' end labeling using T4 polynucleotide kinase (New England Biolabs). Nucleotide probes were hybridized to the RNA nitrocellulose filters according to standard techniques. After hybridization, radioactive signals on the nitrocellulose filters were directly quantified using a BioRad GS-250 Molecular Imager. mRNA hybridization intensities were normalized to the amount of 28S ribosomal RNA present for each sample.
# [2] = test system: GATA-1 mRNA; assay: GATA-1 mRNA level (Northern) with BA and/or cycloheximide in gamma3'PE cells; format: cell-based, human; conditions: BA 5 mM, 5 hr
# Description: To determine if BA exerts its inductive effects by acting directly on pre-existing proteins in the cells, the effect of the protein synthesis inhibitor cycloheximide (CHX) on BA-induced expression of RNA was analyzed. In these experiments, gamma3'PE cells were incubated with 150 μg/ml CHX for 2 hr prior to addition of BA (5 mM). Control cells were incubated with either CHX or BA alone or were mock incubated. Cells were harvested 5 hr later for preparation of total RNA. RNA samples were electrophoresed, transferred to nitrocellulose and hybridized to a ^32 P-labeled luciferase cDNA probe as described in Example 4. The radioactive signals on the filter were quantitated using a BioRad GS-250 Molecular Imager and mRNA levels were normalized to values obtained for mock treated samples. The results are presented graphically in FIG. 12, Panel A. BA treatment alone increased gamma globin-regulated luciferase mRNA by approximately 6 fold.
# The results, normalized to mock treated samples, are depicted graphically in FIG. 12, Panel B. In contrast to luciferase mRNA which was induced by BA treatment, the level of GATA-1 RNA decreases about 3 fold in response to BA treatment.
# [3] = test system: erythroid differentiation of cultured cells; conditions: Leder and Leder 1975; cited from earlier work
# [4] = test system: gamma globin gene expression; conditions: cited from earlier work
# [5] = Blau et al. 1993; cited from earlier work
smiles,measurement,setting,value
"CCCC(=O)O [BA, butyric acid]",fold induction at 5000 µM,"[1]; Homo sapiens, K562, 96 h, read-out: Fold Induction, GATA-1 RNA",1
same,"Raw Value, GATA-1 RNA","[1]; K562 cells, 5 mM, 96 hours",2.23 × 10^5
same,"Normalized Value, GATA-1 RNA","[1]; normalized to 28S ribosomal RNA, K562 cells, 5 mM, 96 hours",5.8 × 10^4
same,decrease in GATA-1 RNA level,[2],about 3 fold
same,induction of erythroid differentiation,[3],potent inducer of erythroid differentiation of cultured cells
same,effect on gamma globin gene expression,[4]; in vitro and in vivo,increase gamma globin gene expression in vitro and in vivo
same,effect on fetal to adult hemoglobin switch,[4]; in vivo,delay the fetal to adult hemoglobin switch in vivo
same,toxicity of high dosages,[5],"associated with toxicity, in particular neurologic toxicity"
